# What was measured:
# [1] = system: Akt phosphorylated at Thr308 in PC-3 cells; assay: Cellular assay: phosphorylation of Akt (Thr308) in PC-3 cells, MSD ELISA; assay type: cell-based; details: Homo sapiens, 1 h, 60 min incubation with compound, read-out: IC50 pAkt_Thr308
# Description: (§1) Cellular activity of PI3Kβ inhibitors was determined by quantifying the phosphorylation of Akt in PC-3 cells. Akt phosphorylated at Ser473 and Thr308 were measured using an enzyme-linked immunosorbent assay (ELISA; Meso Scale Discovery (MSD). Gaithersburg, Md.) and specific primary antibodies from MSD.
# (§2) On day 1, PC3 cells (ATCC […]) were seeded into PerkinElmer MW96 plates at 25.000 cells per well, in 75 μl complete culture medium (DMEM (Dulbecco's Modified Eagle's Medium) high glucose. AQmedia™, D0819, Sigma-Aldrich) containing 10% heat inactivated FCS (Fetal Bovine Serum) and incubated at 37° C., 5% CO2 during 24 hours. On day 2, compound or DMSO (dimethyl sulfoxide) (0.3%) was added and cells were further incubated for 60 min at 37° C., 5% CO2 in a total volume of 100 μl of medium.
# (§3) The phosphoprotein assay was executed according to vendor instructions in the Phospho-Akt (Ser473) Assay Whole Cell Lysate Kit (MSD #K15100D-3) and the Phospho-Akt (Thr308) Assay Whole Cell Lysate Kit (MSD #K151DYD-3) using the lysis, blocking and wash buffer provided.
# (§4) Briefly, at the end of the cell treatment period, media were removed by aspiration and adherent cells were lysed in 50 μl ice-cold lysis buffer. MSD plates are supplied pre-coated with capture antibodies for Phospho-Akt (Ser473 and Thr308). After blocking, lysates from tissue culture plates were added and plates were washed. Then, a solution containing the detection antibody (anti-total Akt conjugated with an electrochemiluminescent compound-MSD Sulfo-tag label) was added. The signals were detected using an MSD SECTOR Imager 6000 and are proportional to the phospho-Akt titres.
# (§5) Data were processed. The percentage of inhibition was plotted against the log concentration of test compounds, and the sigmoidal log concentration-effect curve of best fit was calculated by nonlinear regression analysis. From these concentration-response curves, the IC50 values were calculated. Five concentrations were used for curve fitting.
# [2] = system: Akt phosphorylated at Ser473 in PC-3 cells; assay: Cellular assay: phosphorylation of Akt (Ser473) in PC-3 cells, MSD ELISA; assay type: cell-based; details: Homo sapiens, 1 h, 60 min incubation with compound, read-out: IC50 pAkt_S473
# Description: as §1, §2, §3, §4, §5
# PIK3Cβ_h = target: T1, PIK3Cβ_h (Homo sapiens, UniProt P42338); assay: Enzyme binding assay (KINOMEscan); details: DiscoveRx
# T1 construct: purchased DiscoveRx Corporation, San Diego (KINOMEscan service)
# Description: (§6) Enzyme Binding Assays (KINOMEscan®)
# (§7) Kinase enzyme binding affinities of compounds disclosed herein were determined using the KINOMEscan technology performed by DiscoveRx Corporation, San Diego, Calif., USA (www.kinomescan.com). Table A reports the obtained Kd values (nM), with the Kd being the inhibitor binding constant: […]
# PIK3Cγ_h = target: T2, PIK3Cγ_h (Homo sapiens, UniProt P48736); assay: Enzyme binding assay (KINOMEscan); details: DiscoveRx
# T2 construct: purchased DiscoveRx Corporation, San Diego (KINOMEscan service)
# Description: as §6, §7
# PIK3Cδ_h = target: T3, PIK3Cδ_h (Homo sapiens, UniProt O00329); assay: Enzyme binding assay (KINOMEscan); details: DiscoveRx
# T3 construct: purchased DiscoveRx Corporation, San Diego (KINOMEscan service)
# T3 sequence (O00329 1-1044): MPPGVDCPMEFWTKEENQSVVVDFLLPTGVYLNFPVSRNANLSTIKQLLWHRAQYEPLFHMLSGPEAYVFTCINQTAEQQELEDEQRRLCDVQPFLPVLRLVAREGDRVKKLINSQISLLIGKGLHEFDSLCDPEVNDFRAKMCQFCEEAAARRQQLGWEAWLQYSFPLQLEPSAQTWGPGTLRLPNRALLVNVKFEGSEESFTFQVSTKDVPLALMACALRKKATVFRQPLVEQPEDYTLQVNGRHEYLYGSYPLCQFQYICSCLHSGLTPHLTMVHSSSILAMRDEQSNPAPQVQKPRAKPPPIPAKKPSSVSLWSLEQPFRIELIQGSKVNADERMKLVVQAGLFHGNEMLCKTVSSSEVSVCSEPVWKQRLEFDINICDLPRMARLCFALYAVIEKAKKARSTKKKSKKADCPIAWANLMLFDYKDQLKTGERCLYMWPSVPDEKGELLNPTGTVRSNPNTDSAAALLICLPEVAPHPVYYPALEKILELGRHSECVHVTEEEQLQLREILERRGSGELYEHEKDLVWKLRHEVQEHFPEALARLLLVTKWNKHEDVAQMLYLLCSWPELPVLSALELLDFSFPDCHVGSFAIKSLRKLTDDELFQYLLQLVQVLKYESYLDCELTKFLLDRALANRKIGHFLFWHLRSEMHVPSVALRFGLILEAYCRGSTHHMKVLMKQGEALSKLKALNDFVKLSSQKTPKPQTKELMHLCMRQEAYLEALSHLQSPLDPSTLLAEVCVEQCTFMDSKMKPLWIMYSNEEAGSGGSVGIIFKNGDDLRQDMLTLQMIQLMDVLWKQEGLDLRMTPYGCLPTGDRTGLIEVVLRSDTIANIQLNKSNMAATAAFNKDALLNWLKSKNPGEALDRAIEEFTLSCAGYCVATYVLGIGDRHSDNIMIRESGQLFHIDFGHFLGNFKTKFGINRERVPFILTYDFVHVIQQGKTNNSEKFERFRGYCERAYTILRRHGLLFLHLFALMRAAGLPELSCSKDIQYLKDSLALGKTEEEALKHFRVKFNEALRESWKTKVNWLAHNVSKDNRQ
# Description: as §6, §7
# PIK3Cα_h = target: T4, PIK3Cα_h (Homo sapiens, UniProt P42336); assay: Enzyme binding assay (KINOMEscan); details: DiscoveRx
# T4 construct: purchased DiscoveRx Corporation, San Diego (KINOMEscan service)
# Description: as §6, §7
# MTOR_h = target: T5, MTOR_h (Homo sapiens, UniProt P42345); assay: Enzyme binding assay (KINOMEscan); details: DiscoveRx
# T5 construct: purchased DiscoveRx Corporation, San Diego (KINOMEscan service)
# Description: as §6, §7
# T4 sequence (P42336 whole entry): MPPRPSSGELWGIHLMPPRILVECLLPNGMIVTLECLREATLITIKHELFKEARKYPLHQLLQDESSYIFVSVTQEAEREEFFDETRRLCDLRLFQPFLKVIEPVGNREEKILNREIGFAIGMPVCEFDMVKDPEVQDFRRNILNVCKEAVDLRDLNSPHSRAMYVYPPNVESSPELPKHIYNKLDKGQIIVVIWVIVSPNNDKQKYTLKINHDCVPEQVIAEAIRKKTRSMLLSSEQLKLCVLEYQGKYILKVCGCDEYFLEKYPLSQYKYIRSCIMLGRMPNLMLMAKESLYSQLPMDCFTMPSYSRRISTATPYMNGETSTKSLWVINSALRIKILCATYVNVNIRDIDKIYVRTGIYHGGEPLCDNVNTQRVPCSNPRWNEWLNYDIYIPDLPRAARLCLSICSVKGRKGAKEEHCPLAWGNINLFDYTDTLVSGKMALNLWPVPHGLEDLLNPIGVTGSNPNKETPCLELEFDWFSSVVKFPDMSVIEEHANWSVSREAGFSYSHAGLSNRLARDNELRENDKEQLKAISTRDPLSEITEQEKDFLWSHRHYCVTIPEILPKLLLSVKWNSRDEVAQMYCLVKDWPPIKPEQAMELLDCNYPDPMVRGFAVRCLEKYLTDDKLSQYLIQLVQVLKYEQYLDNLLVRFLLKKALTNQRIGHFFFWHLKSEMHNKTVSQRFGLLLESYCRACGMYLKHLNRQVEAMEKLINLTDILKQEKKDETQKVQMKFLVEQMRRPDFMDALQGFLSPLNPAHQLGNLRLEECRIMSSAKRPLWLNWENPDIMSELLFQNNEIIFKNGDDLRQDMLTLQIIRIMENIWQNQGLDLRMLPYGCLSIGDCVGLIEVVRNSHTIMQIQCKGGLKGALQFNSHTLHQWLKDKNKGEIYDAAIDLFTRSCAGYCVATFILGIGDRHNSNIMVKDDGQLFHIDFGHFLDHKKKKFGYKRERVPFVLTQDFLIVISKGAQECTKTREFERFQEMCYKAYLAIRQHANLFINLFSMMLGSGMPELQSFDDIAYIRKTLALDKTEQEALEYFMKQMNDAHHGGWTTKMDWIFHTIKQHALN
# T2 sequence (P48736 whole entry): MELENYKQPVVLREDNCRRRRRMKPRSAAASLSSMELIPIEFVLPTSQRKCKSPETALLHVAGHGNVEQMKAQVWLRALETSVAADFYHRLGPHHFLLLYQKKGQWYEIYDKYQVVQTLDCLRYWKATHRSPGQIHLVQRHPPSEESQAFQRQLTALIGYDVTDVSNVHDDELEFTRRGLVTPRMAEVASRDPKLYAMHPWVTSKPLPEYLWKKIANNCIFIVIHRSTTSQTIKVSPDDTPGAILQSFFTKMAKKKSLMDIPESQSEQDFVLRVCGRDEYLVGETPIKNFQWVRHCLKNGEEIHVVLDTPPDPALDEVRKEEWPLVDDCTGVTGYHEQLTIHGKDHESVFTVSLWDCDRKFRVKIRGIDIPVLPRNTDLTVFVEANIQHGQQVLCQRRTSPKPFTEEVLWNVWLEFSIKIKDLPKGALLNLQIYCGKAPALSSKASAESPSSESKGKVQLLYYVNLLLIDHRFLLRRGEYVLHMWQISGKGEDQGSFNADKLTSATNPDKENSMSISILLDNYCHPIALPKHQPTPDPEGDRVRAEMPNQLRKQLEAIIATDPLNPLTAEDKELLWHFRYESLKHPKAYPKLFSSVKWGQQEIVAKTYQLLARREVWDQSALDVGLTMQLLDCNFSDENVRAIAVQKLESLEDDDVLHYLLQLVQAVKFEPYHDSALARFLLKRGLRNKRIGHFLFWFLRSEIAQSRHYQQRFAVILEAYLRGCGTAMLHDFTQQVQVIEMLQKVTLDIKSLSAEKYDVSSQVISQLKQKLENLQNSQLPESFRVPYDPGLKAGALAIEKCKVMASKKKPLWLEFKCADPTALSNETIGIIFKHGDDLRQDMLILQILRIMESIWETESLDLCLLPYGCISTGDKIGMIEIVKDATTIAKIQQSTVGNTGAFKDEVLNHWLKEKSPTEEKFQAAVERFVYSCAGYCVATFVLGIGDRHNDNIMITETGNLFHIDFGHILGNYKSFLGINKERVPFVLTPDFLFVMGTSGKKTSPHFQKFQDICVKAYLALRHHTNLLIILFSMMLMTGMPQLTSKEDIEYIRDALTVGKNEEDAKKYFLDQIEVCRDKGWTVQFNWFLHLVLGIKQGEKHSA
# T1 sequence (P42338 whole entry): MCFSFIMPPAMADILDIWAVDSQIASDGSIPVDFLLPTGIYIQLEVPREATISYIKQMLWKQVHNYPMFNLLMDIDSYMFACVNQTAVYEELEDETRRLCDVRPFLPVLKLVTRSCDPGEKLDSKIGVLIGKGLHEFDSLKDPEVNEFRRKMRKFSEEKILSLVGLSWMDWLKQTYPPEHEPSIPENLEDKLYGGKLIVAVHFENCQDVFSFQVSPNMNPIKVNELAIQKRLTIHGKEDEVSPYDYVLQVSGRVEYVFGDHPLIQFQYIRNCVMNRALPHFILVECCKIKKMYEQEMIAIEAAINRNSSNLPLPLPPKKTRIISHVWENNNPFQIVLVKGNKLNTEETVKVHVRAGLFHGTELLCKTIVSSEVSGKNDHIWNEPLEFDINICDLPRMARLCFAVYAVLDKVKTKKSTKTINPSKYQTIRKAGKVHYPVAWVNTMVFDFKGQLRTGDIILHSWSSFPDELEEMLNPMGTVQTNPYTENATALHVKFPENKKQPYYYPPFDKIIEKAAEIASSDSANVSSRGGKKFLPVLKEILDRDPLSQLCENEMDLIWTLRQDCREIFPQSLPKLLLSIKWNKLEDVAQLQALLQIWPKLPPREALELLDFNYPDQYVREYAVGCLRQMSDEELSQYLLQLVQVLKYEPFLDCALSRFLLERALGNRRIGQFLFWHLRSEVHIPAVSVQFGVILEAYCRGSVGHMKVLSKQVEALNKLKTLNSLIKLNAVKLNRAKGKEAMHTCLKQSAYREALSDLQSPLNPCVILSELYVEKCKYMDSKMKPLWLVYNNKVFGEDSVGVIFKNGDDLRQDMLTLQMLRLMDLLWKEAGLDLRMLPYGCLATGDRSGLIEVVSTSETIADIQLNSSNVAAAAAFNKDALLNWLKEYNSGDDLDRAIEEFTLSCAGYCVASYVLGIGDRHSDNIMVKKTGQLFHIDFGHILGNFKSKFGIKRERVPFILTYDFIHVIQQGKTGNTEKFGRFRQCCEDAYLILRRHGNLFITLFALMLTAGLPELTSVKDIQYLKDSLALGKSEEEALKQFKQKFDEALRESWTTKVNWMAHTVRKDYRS
Structure (SMILES),IC50 [1] [nM],IC50 [2] [nM],Kd (PIK3Cβ_h) [nM],Kd (PIK3Cγ_h) [nM],Kd (PIK3Cδ_h) [nM],Kd (PIK3Cα_h) [nM],Kd (MTOR_h) [nM]
Cc1c(Cc2c(CN3CC(O)C3)nc3c(N)cc(N4CCOCC4)nn23)cccc1C(F)(F)F [Compound 3],66,~89,1.7,16200,191,11500,11000
Cc1c(Cc2c(CN3CCC(CS(C)(=O)=O)CC3)nc3c(N)cc(N4CCOCC4)nn23)cccc1C(F)(F)F [Compound 5],71,~132,3.6,> 30200,219,12000,> 30200
Cc1c(Cc2c(CN3CC4(C3)CS(=O)(=O)C4)nc3c(N)cc(N4CCOCC4)nn23)cccc1C(F)(F)F [Compound 7],3,4,0.5,27600,8,436,11400
Cc1c(Cc2c(CN3CC(C)NC(C)C3)nc3c(N)cc(N4CCOCC4)nn23)cccc1C(F)(F)F (stereo not shown) [Compound 10],~48,~42,0.6,> 30200,52,4790,5750
Cc1c(Cc2c(CN3CCCC4(CNC4)C3)nc3c(N)cc(N4CCOCC4)nn23)cccc1C(F)(F)F [Compound 12],~87,85,1.7,8510,89,18600,11000
Cc1c(Cc2c(CN3CC4(CCCNC4)C3)nc3c(N)cc(N4CCOCC4)nn23)cccc1C(F)(F)F [Compound 13],44,28,0.2,977,7,1380,3550
Cc1c(Cc2c(CN3CCC(N)CC3)nc3c(N)cc(N4CCOCC4)nn23)cccc1C(F)(F)F [Compound 14],69,68,0.3,4900,40,7410,13800
Cc1c(Cc2c(CN3CCCC(CO)C3)nc3c(-c4cnc[nH]4)cc(N4CCOCC4)nn23)cccc1C(F)(F)F (stereo not shown) [Compound 15],~41,30,1.4,2190,22,537,7760
Cc1c(Cc2c(CN3CC(C)NC(C)C3)nc3c(-c4cnc[nH]4)cc(N4CCOCC4)nn23)cccc1C(F)(F)F (stereo not shown) [Compound 16],28,38,0.7,5700,17,453,2000
Cc1c(Cc2c(CN3CC(C)NC(C)C3)nc3c(-c4ncc[nH]4)cc(N4CCOCC4)nn23)cccc1C(F)(F)F (stereo not shown) [Compound 18],51,95,0.8,3890,14,475,6070
Cc1c(Nc2c(CN3CC(C)NC(C)C3)nc3c(C(N)=O)cc(N4CCOCC4)nn23)cccc1C(F)(F)F (stereo not shown) [Compound 21],~69,107,1.1,4170,129,1290,20000
Cc1c(Cc2c(CN3CC4(CC(O)C4)C3)nc3c(-c4cnc[nH]4)cc(N4CCOCC4)nn23)cccc1C(F)(F)F [Compound 27],43,62,0.4,589,10,240,1550
Cc1c(Cc2c(CN3CC4(C3)CS(=O)(=O)C4)nc3c(C(=O)O)cc(N4CCOCC4)nn23)cccc1C(F)(F)F [Compound 28],> 513,> 513,0.2,15100,13,372,21400
Cc1c(Cc2c(CN3CC4(CC(O)C4)C3)nc3c(C(=O)O)cc(N4CCOCC4)nn23)cccc1C(F)(F)F [Compound 29],> 513,> 513,0.7,28200,112,6310,> 30200
[2H]C1([2H])OC([2H])([2H])C([2H])([2H])N(c2cc(N)c3nc(CN4CC5(C4)CS(=O)(=O)C5)c(Cc4cccc(C(F)(F)F)c4C)n3n2)C1([2H])[2H] [Compound 30],4,4,0.3,20000,12,617,8130
Cc1c(Cc2c(CN3CCCC34CCS(=O)(=O)C4)nc3c(N)cc(N4CCOCC4)nn23)cccc1C(F)(F)F (stereo not shown) [Compound 31],66,117,4.8,> 30200,479,> 30200,> 30200

# — patent publication US10202387B2, “Heterocyclyl linked imidazopyridazine derivatives as PI3KB inhibitors” (Janssen Pharmaceutica NV, priority 2014, dated 2019)
